{"source": "paper PMC10296347", "about": "“Identification of the Stapled α-Helical Peptide ATSP-7041 as a Substrate and Strong Inhibitor of OATP1B1 In Vitro” (Biomolecules, 2023)", "target": "CYP2C9 (Homo sapiens, UniProt P11712)", "sequence (P11712 whole entry)": "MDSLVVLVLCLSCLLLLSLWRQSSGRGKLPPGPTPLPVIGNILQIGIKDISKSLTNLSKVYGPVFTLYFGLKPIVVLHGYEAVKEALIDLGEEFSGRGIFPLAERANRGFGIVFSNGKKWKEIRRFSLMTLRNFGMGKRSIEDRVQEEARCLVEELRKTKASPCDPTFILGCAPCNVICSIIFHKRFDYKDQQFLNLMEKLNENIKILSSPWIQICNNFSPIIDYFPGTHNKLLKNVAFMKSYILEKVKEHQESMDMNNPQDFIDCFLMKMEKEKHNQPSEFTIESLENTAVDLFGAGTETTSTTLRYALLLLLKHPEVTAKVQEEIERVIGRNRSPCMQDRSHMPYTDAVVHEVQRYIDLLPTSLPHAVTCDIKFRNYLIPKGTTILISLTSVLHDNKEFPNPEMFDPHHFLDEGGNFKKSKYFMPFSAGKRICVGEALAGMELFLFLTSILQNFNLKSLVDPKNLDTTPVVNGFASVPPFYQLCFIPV", "conditions": "microsomes", "procedure": "Text S1. Supplementary Materials and Methods.\nMale Human Liver Pooled S9; Tokyo, Japan). Midazolam, midazolam-d4, 1ʹ-hydroxymidazolam, testosterone, testosterone-d3, and 6β-hydroxytestosterone, were purchased […]\n(Fluorometric)) were purchased from BioVision. Inc. (Milpitas, CA, USA). Reversed vesicles […]\nwere commercially available.\n2. Evaluation of ATSP-7041 as a substrate of CYPs\nS9, with or without the NADPH generation system. S9 (A), at a 2 mg/mL protein concentration […]\nThe reaction solution (400 μL) was then\n3. Evaluation of ATSP-7041 as an inhibitor of CYPs […]\nthe manufacturer’s protocol. […]\nthe indicated periods of times. The substrates, positive control inhibitors, and fluorescence […]\nTable S1. Parameters used in LC/MS analysis.\nTable S2. Substrates and positive control inhibitors used for CYPs inhibition screening.\nResidual activity (% of control, i.e. without test chemical for inhibition) of human CYPs with ATSP-7041 (10 μM) in CYPs inhibition screening. The activity of CYPs were calculated as background-corrected reaction rates using the linear phase of reaction progress […]\ncurve. Data are presented as the mean ± S.D. (n = 3). *\nAnalyte Transition Polarity Ion source voltage Source temp. Collision energy LC gradient program […]\n5% B (0-1 min) - 45% B (3 min)\nCYP isoform Substrate Concentration Positive control inhibitor Concentration Detection Kit No. […]"}
{"smiles": "Nc1ccc(S(=O)(=O)Nc2ccnn2-c2ccccc2)cc1", "note": "[Sulfaphenazole]", "values": [{"measurement": "Residual activity (% of control) CYP2C9, positive control inhibitor", "result": "8.59 ± 2.06 % of control"}]}
